Data reported in US5929038A, “Pharmaceutical preparations which inhibit hepatitis B virus (HBV) replication” (Choongwae Pharmaceutical Co., Ltd., priority 1992, dated 1999).
Several values for one entry are separate records, joined by “and”; a condition that tells them apart may be missing. Identical values can stand only once. Entries after “also recorded” stand apart in the source; their conditions may differ. Like-named read-outs stand apart in the source and are kept apart here.

Legend:
[1] = system: 2.2.15 cells; experiment: Cell toxicity test (neutral red dye uptake); format: cell-based; conditions: plate 23
Experimental: Toxicity testing was performed in 96-well flat bottomed tissue culture plates. These cells were cultured and treated on same schedule as the test compounds used for antiviral evaluation (example 1). Each group at four concentrations was tested in triplicate cultures. Uptake of neutral red dye was used to determine the relative level of toxicity. The absorbance of internalized dye at 510 nm (A510) was used for the quantitative analysis. Values are presented as a percentage of the average A510 values (mean ± standard deviation) in 9 separate cultures of untreated cells maintained on the same 96-well plate as used for the test compound. The percentage of dye uptake in the 9 controlled cultures on plate 23 was 100±4.

[2] = system: liver damage caused by α-amantin intoxication; conditions: mice; cited from earlier work
[3] = system: mice; format: in vivo; conditions: for Alkaline phosphatase / SGOT / Triglyceride: serum at 24 hours; for Fatalities: 24 hours, ten mice
[4] = system: hepatic damage induced by carbon tetrachloride; conditions: laboratory animals; cited from earlier work
[5] = system: gram positive bacteria; conditions: cited from earlier work
[6] = system: Sarcoma 180 cells; conditions: cited from earlier work
[7] = system: HBV DNA replication; experiment: Effects on HBV DNA replication in 2.2.15 cells in culture (intracellular HBV DNA and HBV virion DNA); format: cell-based, hepatitis B virus
[8] = 30 μM + 30'Gly. (incubated 30 min with glycosidase), 24 hrs following the 9th day of treatment

## OCC1=CC(O)C2C=COC(O[C@@H]3O[C@H](CO)[C@@H](O)[C@H](O)[C@H]3O)C12 (stereo partly drawn) [Aucubin, 1,4,5, 7α-tetrahydro-5-hydroxy-17-(hydroxymethyl)cyclopenta[c]pyran-1-yl-β-D-glucopyranose]
[1]; Aucubin + 30'GLY. (preincubated 30 min with glucosidase), 300 μM
  Amount of dye uptake: 99 ± 2 % of control
[1]; Aucubin + 30'GLY. (preincubated 30 min with glucosidase), 1000 μM
  Amount of dye uptake: 99 ± 2 % of control
[1]; Aucubin + 30'GLY. (preincubated 30 min with glucosidase), 3000 μM
  Amount of dye uptake: 82 ± 2 % of control
[1]; Aucubin + 30'GLY. (preincubated 30 min with glucosidase), 10,000 μM
  Amount of dye uptake: 67 ± 3 % of control
[1]; Aucubin + GLY. (glucosidase without preincubation), 300 μM
  Amount of dye uptake: 99 ± 2 % of control
[1]; Aucubin + GLY. (glucosidase without preincubation), 1000 μM
  Amount of dye uptake: 99 ± 1 % of control
[1]; Aucubin + GLY. (glucosidase without preincubation), 3000 μM
  Amount of dye uptake: 93 ± 5 % of control
[1]; Aucubin + GLY. (glucosidase without preincubation), 10,000 μM
  Amount of dye uptake: 63 ± 6 % of control
[1]; Aucubin alone, 300 μM
  Amount of dye uptake: 99 ± 1 % of control
[1]; Aucubin alone, 1000 μM
  Amount of dye uptake: 100 ± 1 % of control
[1]; Aucubin alone, 3000 μM
  Amount of dye uptake: 85 ± 3 % of control
[1]; Aucubin alone, 10,000 μM
  Amount of dye uptake: 45 ± 3 % of control
[2]
  Liver-protective activity against α-amantin: protects the liver from damages caused by α-amantin intoxication in mice
[3]; 100 mg/kg i.p.
  Alkaline phosphatase: 236 IU/L
  SGOT: 261 IU/L
[3]; 100 mg/kg intraperitoneal single dose
  Fatalities: 0 No.
[3]; 300 mg/kg i.p.
  Alkaline phosphatase: 157 IU/L
  SGOT: 194 IU/L
  Triglyceride: 35 mg/dL
[3]; 300 mg/kg intraperitoneal single dose
  Fatalities: 0 No.
[3]; 600 mg/kg i.p.
  Alkaline phosphatase: 135 IU/L
  SGOT: 179 IU/L
  Triglyceride: 39 mg/dL
[3]; 600 mg/kg intraperitoneal single dose
  Fatalities: 0 No.
[3]; 900 mg/kg i.p.
  SGOT: 162 IU/L
  Triglyceride: 51 mg/dL
[3]; 900 mg/kg intraperitoneal single dose
  Fatalities: 0 No.
[3]; 100-900 mg/kg i.p.
  fatality (in words): no fatality
[3]; high dose
  activities of SGOT and alkaline phosphatase: slight decline
  serious toxic effect (in words): no serious toxic effect occurred
  triglyceride contents: elevated slightly
[3]; mouse, in vivo, ip
  minimum fatal dose: more than 900 mg/kg
[4]
  Liver-protective activity against carbon tetrachloride: protect the liver from hepatic damage induced by carbon tetrachloride intoxication
[5]
  Antibacterial activity: Antibacterial activity was noted mainly on gram positive bacteria
[6]
  Inhibitory effects on RNA and protein biosynthesis: can exert inhibitory effects on RNA and protein biosynthesis in Sarcoma 180 cells
[7]
  inhibition of HBV DNA biosynthesis / antiviral activity (in words): exerts an antiviral activity aganist HBV infection; also recorded: marked inhibition of HBV DNA biosynthesis
[7]; [8]
  Intracellular HBV DNA, Mono.: 2.5 pg/μg cell DNA and 2.4 pg/μg cell DNA and 2.3 pg/μg cell DNA and 2.7 pg/μg cell DNA
  Intracellular HBV DNA, RI (Replicating Intermediate): 92 pg/μg cell DNA and 68 pg/μg cell DNA and 59 pg/μg cell DNA
[7]; 30 μM + 30'Gly., Day 0, before first dose
  HBV Virion DNA, Day 0: 61 pg/ml culture medium and 79 pg/ml culture medium and 68 pg/ml culture medium
[7]; 30 μM + 30'Gly., Day 3
  HBV Virion DNA, Day 3: 85 pg/ml culture medium and 94 pg/ml culture medium and 51 pg/ml culture medium and 75 pg/ml culture medium
[7]; 30 μM + 30'Gly., Day 6
  HBV Virion DNA, Day 6: 70 pg/ml culture medium and 62 pg/ml culture medium and 55 pg/ml culture medium and 75 pg/ml culture medium
[7]; 30 μM + 30'Gly., Day 9
  HBV Virion DNA, Day 9: 80 pg/ml culture medium and 48 pg/ml culture medium and 87 pg/ml culture medium and 91 pg/ml culture medium
